# pIC50: −log10 of the molar value.
# Columns and labels:
# [1] = tested on: A549; assay: MTS cytotoxicity test, A549; assay type: cell-based; conditions: 96 h, read-out: IC50 value in human tumor cells
# Method: (§1) Containing 10% bovine fetal serum, 1 mM of sodium pyruvate, 2 mM of L-glutamine, 50 U/mL of penicillin, 50 μg/mL of streptomycin
# (§2) Human tumor cells: dul45-human prostate cancer; MCF-7-human breast cancer; SK0V3-human ovarian carcinoma, HT-29-human colon cancer; A549-human non-small cell lung cancer (adenocarcinoma), H460-human non-small cell lung cancer (large cell carcinoma), and animal tumor cells: L1210-mice leukemia cells used in the following activity test experiments were all purchased from Shanghai An Yan Commercial Trade Co., Ltd.
# (§3) MTS test method was used in cytotoxicity assay. The tumor cells of logarithmic phase were collected, and then the concentration of cell suspension was adjusted, 100 μL of the cell suspension was added to each well, the cells were placed at 1000-10000 cells/well (edge well filled with sterile PBS). Cells were incubated at 37° C. with 5% CO2 to make cell monolayer overspread the bottom of each well (96-well flat-bottomed microplate). 100 μL of different concentrations of the test compounds was added to each well. Each condition was measured in five replicates. The microplate was incubated at 37° C. with 5% CO2 for 96 h and checked with inverted microscope. MTS working reagent: To 2 mL of MTS (2 mg/mL, prepared by DPBS) was added 100 μL of PMS (1 mg/mL, prepared by DPBS). The cell culture medium was discarded after centrifugation, the cell culture plate was carefully washed 2-3 times with PBS. Before detecting the absorbance value (OD), to each sample containing well was added 100 μL of cell culture medium, then 20 μL of MTS working reagent was added. After incubation at 37° C. with 5% CO2 for 2 h, the OD (optical density) value was detected at 490 nm.
# (§4) Control group: the conditions are the same as the above without adding the active ingredient of antitumor agents, and the OD value was detected at 490 nm on the end of the experiment.
# (§5) The cell inhibiting rate of the drugs to tumor cell growth was calculated according to the following formula:
# (§6) 1) Cell viability (%)=OD of treated group/OD of control group×100%
# (§7) 2) The cell viabilities under the different drug concentrations were determined, and then plotted against drug concentration. The IC50 value is the corresponding concentration in the obtained curve when the cell viability was 50%.
# [2] = tested on: SKOV3; assay: MTS cytotoxicity test, SKOV3; assay type: cell-based; conditions: 96 h, read-out: IC50 value in human tumor cells
# Method: as §1, §2, §3, §4, §5, §6, §7
# [3] = tested on: MCF7; assay: MTS cytotoxicity test, MCF7; assay type: cell-based; conditions: 96 h, read-out: IC50 value in human tumor cells
# Method: as §1, §2, §3, §4, §5, §6, §7
# [4] = tested on: HT29; assay: MTS cytotoxicity test, HT29; assay type: cell-based; conditions: 96 h, read-out: IC50 value in human tumor cells
# Method: as §1, §2, §3, §4, §5, §6, §7
# [5] = tested on: DU145; assay: MTS cytotoxicity test, DU145; assay type: cell-based; conditions: 96 h, read-out: IC50 value in human tumor cells
# Method: as §1, §2, §3, §4, §5, §6, §7
# [6] = tested on: H460; assay: MTS cytotoxicity test, H460; assay type: cell-based; conditions: 96 h, read-out: IC50 value in human tumor cells
# Method: as §1, §2, §3, §4, §5, §6, §7
# [7] = tested on: L1210 tumor cells; assay: Antitumor efficacy in L1210 tumor-bearing CDF1 mice (increase in life span); assay type: in vivo
# Method: In the following test, antitumor efficacy studies were performed using 8-9 weeks old female CDF1 mice, the average weight of the animal is 20-25 grams. L1210 tumor cells (about 10^5 cells per mouse) were inoculated intraperitoneally. The fluorine-containing water-soluble platinum complexes were used to treat the tumor-bearing animals and the efficacy was compared compared with the clinical platinum antitumor drugs. […] Drugs were administered intraperitoneally on day 1 and day 4 after tumor cell transplantation. The number of experimental animals in each group was 6.
# The experimental animals were purchased from Vital River Laboratory Animal Technology Co. Ltd., Tumor cells L1210-leukemia cells were purchased from Shanghai An Yan Commercial Trade Co. Ltd.
# The increase in life span (ILS) is calculated as follows:
# Wherein, St=the weighted median survival time of treated animals; Su=the weighted median survival time of untreated animals
# [8] = 50 mg/Kg i.p. on day 1 and day 4
# [9] = 100 mg/Kg i.p. on day 1 and day 4
# [10] = 200 mg/Kg i.p. on day 1 and day 4
SMILES,pIC50 [1],pIC50 [2],pIC50 [3],pIC50 [4],pIC50 [5],pIC50 [6],"ILS (%) [7, 8] [%]","Survived Animals on Day 42 [7, 8]","Weight Changes (g) ([7]; 50 mg/Kg i.p. on day 1 and day 4, weight changes from the first day to the seventh day)","ILS (%) [7, 9] [%]","Survived Animals on Day 42 [7, 9]","Weight Changes (g) ([7]; 100 mg/Kg i.p. on day 1 and day 4, weight changes from the first day to the seventh day)","ILS (%) [7, 10] [%]","Survived Animals on Day 42 [7, 10]","Weight Changes ([7]; 200 mg/Kg i.p. on day 1 and day 4, weight changes from the first day to the seventh day) [g]"
O=C1[O][Pt]2([NH]C3CCCCC3[NH]2)[O]C(=O)C1(F)CCCOC1OC(CO)C(O)C(O)C1O (stereo not drawn) [Complex 9],4.99,4.67,5.17,5.92,5.15,4.67,>400,6/6,+1.5 g,>400,6/6,+0.1 g,>400,6/6,-0.5
O=C1[O][Pt]2([NH]C3CCCCC3[NH]2)[O]C(=O)C1(F)CCOC1OC(CO)C(O)C(O)C1O (stereo not drawn) [Complex 8],5.29,4.31,5.29,5.97,5.29,5.00,,,,,,,,,
"O=C1[O][Pt]2([NH][C@@H]3CCCC[C@H]3[NH]2)[O]C(=O)C1(F)CCOC1O[C@H](CO)[C@@H](O)[C@H](O)[C@H]1O (stereo partly drawn) [Complex 2, cis-[trans-(1R, 2R)-diaminocyclohexane] Pt (II) (1—O—D-glucoside-propane-3-fluoro-3,3-dicarb oxylate)]",6.17,5.00,6.18,5.81,5.31,5.01,,,,,,,,,
